Experimental data from patent US12331044B2, “Inhibitors of histone deacetylase useful for the treatment or prevention of HIV infection” (Merck Sharp & Dohme LLC, priority 2018, dated 2025).
Read-outs that look alike come from different tables or passages of the source.

Assays:
human HDAC2 = human HDAC2 (Homo sapiens (Human), UniProt Q92769); test: HDAC2 inhibition assay (modified FLUOR DE LYS, 384-well); assay type: biochemical; conditions: […] nM enzyme, 40 μM substrate BML-KI104, 3 h pre-incubation; read-out: HDAC2 IC50
human HDAC8 = human HDAC8 (Homo sapiens (Human), UniProt Q9BY41); test: HDAC8 inhibition assay (modified FLUOR DE LYS, 384-well); assay type: biochemical; conditions: […] nM enzyme, 200 μM substrate BML-KI178, 3 h pre-incubation; read-out: HDAC8 IC50
KARN cells (Jurkat 2C4) = test: cells; conditions: Homo sapiens
human HDAC1 = human HDAC1 (Homo sapiens (Human), UniProt Q13547); test: biochemical
[1] = molecular target: human HDAC3/SMRT heterodimer (Homo sapiens (Human), UniProt O15379); test: biochemical
HDAC6 = HDAC6 (Homo sapiens (Human), UniProt Q9UBN7); test: biochemical
[2] = read-out: Karn EC50 nM 0.1% NHS, 0.1% normal human serum, luciferase induction, 2 μM SAHA = 100%
[3] = read-out: Karn EC50 nM 5% NHS, 5% normal human serum, luciferase induction, 2 μM SAHA = 100%
[4] = read-out: Karn EC50 nM 0.1% NHS

Sequence of human HDAC2 (Q92769 whole entry): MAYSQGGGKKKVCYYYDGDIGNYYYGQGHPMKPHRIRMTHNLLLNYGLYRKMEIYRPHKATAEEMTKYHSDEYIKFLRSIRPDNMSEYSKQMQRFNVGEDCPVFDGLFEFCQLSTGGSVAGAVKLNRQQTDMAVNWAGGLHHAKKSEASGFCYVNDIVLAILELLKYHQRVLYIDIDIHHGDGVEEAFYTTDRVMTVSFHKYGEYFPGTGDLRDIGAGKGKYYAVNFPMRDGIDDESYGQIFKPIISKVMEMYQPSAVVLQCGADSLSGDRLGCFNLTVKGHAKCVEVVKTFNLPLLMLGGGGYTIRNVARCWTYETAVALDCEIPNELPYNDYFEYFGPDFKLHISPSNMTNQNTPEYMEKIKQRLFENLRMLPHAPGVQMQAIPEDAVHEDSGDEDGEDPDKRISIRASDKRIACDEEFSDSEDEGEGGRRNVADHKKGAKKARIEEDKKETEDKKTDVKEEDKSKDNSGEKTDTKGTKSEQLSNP
Sequence of human HDAC8 (Q9BY41 whole entry): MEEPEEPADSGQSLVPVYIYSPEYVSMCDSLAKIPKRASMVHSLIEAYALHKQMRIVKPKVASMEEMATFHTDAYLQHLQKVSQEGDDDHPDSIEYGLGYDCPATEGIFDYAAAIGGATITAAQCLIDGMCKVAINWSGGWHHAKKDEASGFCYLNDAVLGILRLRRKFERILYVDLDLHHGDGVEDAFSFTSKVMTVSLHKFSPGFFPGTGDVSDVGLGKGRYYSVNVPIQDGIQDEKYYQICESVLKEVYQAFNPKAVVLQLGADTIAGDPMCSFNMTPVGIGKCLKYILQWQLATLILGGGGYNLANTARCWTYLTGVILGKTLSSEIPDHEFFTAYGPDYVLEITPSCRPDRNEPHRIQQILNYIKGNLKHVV
Sequence of human HDAC1 (Q13547 whole entry): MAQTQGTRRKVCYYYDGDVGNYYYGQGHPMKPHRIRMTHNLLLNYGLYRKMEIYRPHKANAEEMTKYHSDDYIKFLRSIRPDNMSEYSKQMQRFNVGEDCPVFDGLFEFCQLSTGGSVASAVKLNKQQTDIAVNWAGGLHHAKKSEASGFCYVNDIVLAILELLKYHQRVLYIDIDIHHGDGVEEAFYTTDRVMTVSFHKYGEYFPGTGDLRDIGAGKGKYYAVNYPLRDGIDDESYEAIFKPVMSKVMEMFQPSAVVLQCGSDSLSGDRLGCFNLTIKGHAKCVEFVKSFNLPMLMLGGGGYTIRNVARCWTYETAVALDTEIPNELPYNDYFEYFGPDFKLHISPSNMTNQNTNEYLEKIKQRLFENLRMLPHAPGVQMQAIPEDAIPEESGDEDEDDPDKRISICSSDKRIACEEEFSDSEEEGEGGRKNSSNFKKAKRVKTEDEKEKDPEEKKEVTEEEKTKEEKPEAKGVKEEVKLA
Sequence of human HDAC3/SMRT heterodimer (O15379 whole entry): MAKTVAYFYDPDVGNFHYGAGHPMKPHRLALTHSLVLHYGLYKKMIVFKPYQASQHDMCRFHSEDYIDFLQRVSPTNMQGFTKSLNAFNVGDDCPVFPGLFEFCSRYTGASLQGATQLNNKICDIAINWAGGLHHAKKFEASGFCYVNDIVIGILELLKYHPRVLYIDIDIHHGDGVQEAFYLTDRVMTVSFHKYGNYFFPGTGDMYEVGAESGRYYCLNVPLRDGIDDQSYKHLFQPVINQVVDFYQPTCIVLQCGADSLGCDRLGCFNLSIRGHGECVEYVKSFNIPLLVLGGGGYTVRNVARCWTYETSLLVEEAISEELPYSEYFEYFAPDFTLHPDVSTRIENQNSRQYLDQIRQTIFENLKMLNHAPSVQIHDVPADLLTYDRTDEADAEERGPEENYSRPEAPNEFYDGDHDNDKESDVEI
Sequence of human HDAC3/SMRT heterodimer (Q9Y618 1-899 partner): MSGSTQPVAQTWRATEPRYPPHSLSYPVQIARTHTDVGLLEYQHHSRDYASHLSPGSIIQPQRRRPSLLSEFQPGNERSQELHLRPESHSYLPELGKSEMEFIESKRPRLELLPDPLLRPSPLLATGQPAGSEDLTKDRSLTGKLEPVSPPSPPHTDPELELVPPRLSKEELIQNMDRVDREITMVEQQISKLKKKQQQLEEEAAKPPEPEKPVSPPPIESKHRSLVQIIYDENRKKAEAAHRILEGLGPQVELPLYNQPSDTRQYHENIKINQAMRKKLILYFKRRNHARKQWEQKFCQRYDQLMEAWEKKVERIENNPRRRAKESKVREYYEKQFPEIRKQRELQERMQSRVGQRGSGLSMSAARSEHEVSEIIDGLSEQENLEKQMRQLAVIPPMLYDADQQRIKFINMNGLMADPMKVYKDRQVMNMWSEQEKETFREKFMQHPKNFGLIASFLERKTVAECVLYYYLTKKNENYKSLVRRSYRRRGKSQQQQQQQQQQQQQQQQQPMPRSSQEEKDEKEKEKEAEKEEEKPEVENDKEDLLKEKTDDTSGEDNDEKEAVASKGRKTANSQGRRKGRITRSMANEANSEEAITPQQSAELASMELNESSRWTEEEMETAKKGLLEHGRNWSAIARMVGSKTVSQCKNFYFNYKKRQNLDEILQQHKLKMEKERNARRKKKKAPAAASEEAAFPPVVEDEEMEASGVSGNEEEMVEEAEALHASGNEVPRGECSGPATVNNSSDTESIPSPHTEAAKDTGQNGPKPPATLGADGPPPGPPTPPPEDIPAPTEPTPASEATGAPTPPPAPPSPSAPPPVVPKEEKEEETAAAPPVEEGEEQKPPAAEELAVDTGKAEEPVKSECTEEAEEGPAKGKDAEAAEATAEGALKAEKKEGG
Sequence of HDAC6 (Q9UBN7 whole entry): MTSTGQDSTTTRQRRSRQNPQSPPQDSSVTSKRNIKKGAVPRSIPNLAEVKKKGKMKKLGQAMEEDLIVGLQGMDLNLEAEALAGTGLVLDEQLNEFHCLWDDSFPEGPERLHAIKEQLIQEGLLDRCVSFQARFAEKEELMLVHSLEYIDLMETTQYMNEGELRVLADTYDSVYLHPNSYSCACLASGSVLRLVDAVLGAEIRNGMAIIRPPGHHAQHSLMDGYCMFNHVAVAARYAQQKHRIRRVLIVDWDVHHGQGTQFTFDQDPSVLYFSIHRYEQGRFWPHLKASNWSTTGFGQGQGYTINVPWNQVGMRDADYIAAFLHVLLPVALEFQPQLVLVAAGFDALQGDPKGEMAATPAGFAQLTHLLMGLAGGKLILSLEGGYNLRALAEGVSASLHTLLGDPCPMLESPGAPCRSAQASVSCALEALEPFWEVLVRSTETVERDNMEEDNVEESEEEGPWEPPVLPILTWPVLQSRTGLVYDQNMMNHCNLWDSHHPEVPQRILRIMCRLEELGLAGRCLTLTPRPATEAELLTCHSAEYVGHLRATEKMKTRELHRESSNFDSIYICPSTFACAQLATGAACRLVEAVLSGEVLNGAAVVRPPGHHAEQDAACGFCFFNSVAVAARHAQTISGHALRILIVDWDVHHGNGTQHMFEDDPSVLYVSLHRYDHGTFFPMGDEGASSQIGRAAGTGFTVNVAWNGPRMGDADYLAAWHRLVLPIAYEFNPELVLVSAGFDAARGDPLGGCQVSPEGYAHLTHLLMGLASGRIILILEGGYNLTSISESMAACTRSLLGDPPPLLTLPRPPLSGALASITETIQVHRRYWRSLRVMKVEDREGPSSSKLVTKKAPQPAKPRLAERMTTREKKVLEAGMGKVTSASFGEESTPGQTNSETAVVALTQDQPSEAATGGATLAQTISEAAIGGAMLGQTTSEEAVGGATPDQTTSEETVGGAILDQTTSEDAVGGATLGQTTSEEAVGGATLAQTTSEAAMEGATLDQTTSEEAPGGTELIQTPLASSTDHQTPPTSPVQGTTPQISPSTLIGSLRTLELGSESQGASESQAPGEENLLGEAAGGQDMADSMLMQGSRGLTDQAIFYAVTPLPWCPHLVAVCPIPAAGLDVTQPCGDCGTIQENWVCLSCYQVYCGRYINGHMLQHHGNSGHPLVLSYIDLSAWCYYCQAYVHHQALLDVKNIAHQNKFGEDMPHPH

Row | Structure (SMILES) | IC50 (human HDAC2) | IC50 (human HDAC8) | EC50 (KARN cells (Jurkat 2C4); [2]) | EC50 (KARN cells (Jurkat 2C4); [3]) | IC50 (human HDAC1) | IC50 [1] | IC50 (HDAC6) | EC50 (KARN cells (Jurkat 2C4); [4]) | EC50 (KARN cells (Jurkat 2C4); read-out: Karn EC50 nM 5% NHS)
1 | CCN[C@@H](CCCCCC(=O)c1ncco1)c1ncc(-c2ccc3nc(C)ccc3c2)[nH]1 [Example 74, (S)-7-(ethylamino)-7-(5-(2-methylquinolin-6-yl)-1H-imidazol-2-yl)-1-(oxazol-2-yl)heptan-1-one] | 5 nM | 4500 nM | 140 nM | 200 nM | 1.6 nM | 1.8 nM | ≥ 45000 nM |  | 
2 | CN[C@@H](CCCCCC(=O)c1ncco1)c1ncc(-c2cc3ccc(=O)n(C)c3cc2OC)[nH]1 [Example 76, (S)-7-methoxy-1-methyl-6-(2-(1-(methylamino)-7-(oxazol-2-yl)-7-oxoheptyl)-1H-imidazol-5-yl)quinolin-2(1H)-one] | 6.7 nM | > 900 nM | 200 nM | 220 nM | 2.2 nM | 2.7 nM | > 900 nM |  | 
3 | Cc1ccc2cc(-c3c[nH]c([C@H](CCCCCC(=O)c4ncco4)NC4CCOCC4)n3)ccc2n1 [Example 79, (S)-7-(5-(2-methylquinolin-6-yl)-1H-imidazol-2-yl)-1-(oxazol-2-yl)-7-((tetrahydro-2H-pyran-4-yl)amino)heptan-1-one] | 35 nM | 17000 nM |  |  | 6.6 nM | 12 nM | ≥ 45000 nM | 1000 nM | 1300 nM
4 | Cc1ccc2cc(-c3c[nH]c([C@H](CCCCCC(=O)c4ncco4)NCc4ccccc4)n3)ccc2n1 [Example 81, (S)-7-(benzylamino)-7-(5-(2-methylquinolin-6-yl)-1H-imidazol-2-yl)-1-(oxazol-2-yl)heptan-1-one] | 16 nM | 4900 nM |  |  | 3.4 nM | 3.7 nM | 21000 nM | 430 nM | 690 nM
5 | Cc1ccc2cc(-c3cnc([C@H](CCCCCC(=O)c4ncco4)N4CCOCC4)[nH]3)ccc2n1 [Example 83, (S)-7-(5-(2-methylquinolin-6-yl)-1H-imidazol-2-yl)-7-morpholino-1-(oxazol-2-yl)heptan-1-one] | 62 nM | 12000 nM | 3400 nM | 4200 nM | 14 nM | 31 nM | ≥ 45000 nM |  | 
6 | COc1cc2nc(C)ccc2cc1-c1cnc([C@H](CCCCCC(=O)c2ncco2)NC2CC(OC)C2)[nH]1 (stereo partly drawn) [Example 84, (S)-7-(5-(7-methoxy-2-methylquinolin-6-yl)-1H-imidazol-2-yl)-7-((3-methoxycyclobutyl)amino)-1-(oxazol-2-yl)heptan-1-one] | 22 nM | 3100 nM | 490 nM | 540 nM | 4 nM | 7.9 nM | 13000 nM |  | 
7 | COc1cc2nc(C)ccc2cc1-c1cnc([C@H](CCCCCC(=O)c2ncco2)Nc2ncccn2)[nH]1 [Example 85, (S)-7-(5-(7-methoxy-2-methylquinolin-6-yl)-1H-imidazol-2-yl)-1-(oxazol-2-yl)-7-(pyrimidin-2-ylamino)heptan-1-one] | 11 nM | 210 nM | 67 nM | 210 nM | 2.3 nM | 1.5 nM | 250 nM |  | 
8 | COC(=O)N[C@@H](CCCCCC(=O)c1ncco1)c1ncc(-c2cc3ccc(C)nc3cc2OC)[nH]1 [Example 86, (S)-methyl (1-(5-(7-methoxy-2-methylquinolin-6-yl)-1H-imidazol-2-yl)-7-(oxazol-2-yl)-7-oxoheptyl)carbamate] | 9.9 nM | 160 nM | 80 nM | 160 nM | 2 nM | 1.5 nM | 40 nM |  | 
9 | CC(=O)N[C@@H](CCCCCC(=O)c1ncco1)c1ncc(-c2ccc3nc(C)ccc3c2)[nH]1 [Example 87, (S)-N-(1-(5-(2-methylquinolin-6-yl)-1H-imidazol-2-yl)-7-(oxazol-2-yl)-7-oxoheptyl)acetamide] | 5.7 nM | 130 nM |  |  | 0.69 nM | 1.8 nM | 8600 nM | 43 nM | 60 nM
10 | O=C(CCCCC[C@H](NC(=O)c1cncs1)c1[nH]c(-c2ccc(F)cc2)nc1Cl)c1ncco1 [Example 88, (S)-N-(1-(4-chloro-2-(4-fluorophenyl)-1H-imidazol-5-yl)-7-(oxazol-2-yl)-7-oxoheptyl)thiazole-5-carboxamide] | 1.4 nM | 61 nM | 25 nM | 380 nM | 0.22 nM | 0.37 nM | ≥ 45000 nM |  | 
11 | COc1cc2nc(C)ccc2cc1-c1cnc([C@H](CCCCCC(=O)c2ncco2)NC(=O)CN(C)C)[nH]1 [Example 89, (S)-2-(dimethylamino)-N-(1-(5-(7-methoxy-2-methylquinolin-6-yl)-1H-imidazol-2-yl)-7-(oxazol-2-yl)-7-oxoheptyl)acetamide] | 3.4 nM | 69 nM |  |  | 0.8 nM | 1.5 nM | 1700 nM | 13 nM | 32 nM
12 | CCn1ccc2cc(-c3cnc([C@H](CCCCCC(=O)c4ccon4)NC(=O)CN(C)C)[nH]3)c(OC)cc2c1=O [Example 94, (S)-2-(dimethylamino)-N-(1-(5-(2-ethyl-7-methoxy-1-oxo-1,2-dihydroisoquinolin-6-yl)-1H-imidazol-2-yl)-7-(isoxazol-3-yl)-7-oxoheptyl)acetamide] | 1 nM | 5.2 nM | 3.8 nM | 8.8 nM | 0.26 nM | 0.24 nM | 20000 nM |  | 
13 | CN(C)CC(=O)N[C@@H](CCCCCC(=O)c1ncco1)c1ncc(-c2ccc3nccnc3c2)[nH]1 [Example 95, (S)-2-(dimethylamino)-N-(7-(oxazol-2-yl)-7-oxo-1-(5-(quinoxalin-6-yl)-1H-imidazol-2-yl)heptyl)acetamide] | 8.6 nM | 68 nM | 63 nM | 84 nM | 1.3 nM | 2.2 nM | 700 nM |  | 
14 | CCN1CCC2(CC1)C[C@@H]2C(=O)N[C@@H](CCCCCC(=O)c1ncco1)c1[nH]c(-c2ccc(F)cc2)nc1Cl [Example 97, (S)-N-((S)-1-(4-chloro-2-(4-fluorophenyl)-1H-imidazol-5-yl)-7-(oxazol-2-yl)-7-oxoheptyl)-6-ethyl-6-azaspiro[2.5]octane-1-carboxamide] | 0.38 nM | 210 nM | 4.1 nM | 11 nM | 0.049 nM | 0.066 nM | 19000 nM |  | 
15 | COc1cc2nc(C)ccc2cc1-c1cnc([C@H](CCCCCC(=O)c2ncco2)NC(=O)C2CCN(C)CC2)[nH]1 [Example 98, (S)-N-(1-(5-(7-methoxy-2-methylquinolin-6-yl)-1H-imidazol-2-yl)-7-(oxazol-2-yl)-7-oxoheptyl)-1-methylpiperidine-4-carboxamide] | 3.6 nM | 25 nM |  |  | 0.34 nM | 0.64 nM | 1000 nM | 58 nM | 170 nM
16 | COc1cc2nc(C)ccc2cc1-c1cnc([C@H](CCCCCC(=O)c2ncco2)NC(=O)C2CN(C)C2)[nH]1 [Example 99, (S)-N-(1-(5-(7-methoxy-2-methylquinolin-6-yl)-1H-imidazol-2-yl)-7-(oxazol-2-yl)-7-oxoheptyl)-1-methylazetidine-3-carboxamide] | 2.6 nM | 56 nM |  |  | 0.3 nM | 0.47 nM | 1300 nM | 77 nM | 73 nM
